Source: ChEMBL document CHEMBL1155466, “Structure-activity relationships of 6-methyl-benzo[b]thiophene-2-carboxylic acid (1-[(S)-1-benzyl-4-[4-(tetrahydropyran-4-ylmethyl)piperazin-1-yl]butylcarbamoyl]cyclopentyl)amide, potent antagonist of the neurokinin-2 receptor” (J Med Chem, 2010)
Calls of active or inactive are those of the source. The rule behind the calls is not given here.

Assays:
[1] = target: T1, Substance-K receptor (Homo sapiens, UniProt P21452); test: Displacement of [3H]neurokinin A from human NK2 receptor
T1 sequence (P21452 whole entry): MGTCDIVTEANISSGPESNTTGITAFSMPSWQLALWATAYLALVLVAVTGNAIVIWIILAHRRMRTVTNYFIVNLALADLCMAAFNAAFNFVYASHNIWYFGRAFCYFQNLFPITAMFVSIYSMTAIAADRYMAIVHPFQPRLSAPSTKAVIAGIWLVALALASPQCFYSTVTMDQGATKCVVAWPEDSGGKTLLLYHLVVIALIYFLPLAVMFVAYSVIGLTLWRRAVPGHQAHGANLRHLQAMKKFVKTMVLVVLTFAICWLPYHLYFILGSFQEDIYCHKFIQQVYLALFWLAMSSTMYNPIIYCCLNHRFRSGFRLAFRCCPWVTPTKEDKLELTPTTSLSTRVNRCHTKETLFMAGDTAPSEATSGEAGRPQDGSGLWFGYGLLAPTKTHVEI

[2] = target: T2, Substance-K receptor (Cavia porcellus) (UniProt Q64077); test: Antagonist activity at NK2 receptor in Dunkin-Hartley guinea pig colon smooth muscle assessed as inhibition of [beta-Ala8]NKA(4-10)-induced tissue contraction in presence of NK1 receptor antagonist SR-140333; type: functional, tissue-based
T2 sequence (whole entry): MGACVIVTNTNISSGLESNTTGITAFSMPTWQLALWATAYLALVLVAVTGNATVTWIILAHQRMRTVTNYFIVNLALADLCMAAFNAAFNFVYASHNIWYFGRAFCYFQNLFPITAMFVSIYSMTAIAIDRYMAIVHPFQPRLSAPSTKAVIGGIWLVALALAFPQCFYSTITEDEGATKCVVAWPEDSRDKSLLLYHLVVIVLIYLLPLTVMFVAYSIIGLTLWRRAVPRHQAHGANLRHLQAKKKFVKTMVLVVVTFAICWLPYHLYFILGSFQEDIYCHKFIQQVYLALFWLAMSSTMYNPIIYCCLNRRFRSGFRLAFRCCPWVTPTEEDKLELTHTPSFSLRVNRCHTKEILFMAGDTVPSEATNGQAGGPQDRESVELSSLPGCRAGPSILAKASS

[3] = Apparent permeability from apical to basolateral side of human Caco-2 cells at 100 uM
[4] = tested on: Cavia porcellus; test: Inhibition of [beta-Ala8]NKA(4-10)-induced colonic contractions in Dunkin-Hartley guinea pig at 3 umol/kg, iv after 4 hrs relative to control; type: functional
[5] = target: T1, Substance-K receptor; test: Antagonist activity at NK2 receptor in human urinary bladder assessed as inhibition of [beta-Ala8]NKA(4-10)-induced tissue contractions; type: functional; conditions: read-out: pA2 (converted)
[6] = tested on: Homo sapiens; test: Inhibition of [beta-Ala8]NKA(4-10)-induced colonic contractions […] at 10 umol/kg, id relative to control; type: functional, organism-based

Row | Ki [1] [pM] | pKb [2] | Papp A→B at 100 µM [3] [×10⁻⁶ cm/s] | Kb [5] [pM] | Compound | Imax [4] [%] | Activity [6]
1 | 316 | 8.2 | 14.6 | – | O=C(NC1(C(=O)N[C@@H](CCCN2CCN(CC3CCOCC3)CC2)Cc2ccccc2)CCCC1)c1ccc2ccccc2c1 | – | –
2 | 631 | 8.2 | 20.2 | – | O=C(NC1(C(=O)N[C@@H](CCCN2CCN(CC3CCOCC3)CC2)Cc2ccccc2)CCCC1)c1cc2ccccc2o1 | 65 | –
3 | – | 8.6 | 11.2 | 200 | Cc1ccc2cc(C(=O)NC3(C(=O)N[C@@H](CCCN4CCN(CC5CCOCC5)CC4)Cc4ccccc4)CCCC3)sc2c1 | 100 | Active
4 | 501 | 8.2 | – | – | Cc1ccc2cc(C(=O)NC3(C(=O)N[C@@H](/C=C/CN4CCN(CC5CCOCC5)CC4)Cc4ccccc4)CCCC3)sc2c1 | 72 | –
5 | 126 | 8.2 | – | – | Cc1ccc2cc(C(=O)NC3(C(=O)N[C@@H](CCCN4CCN(Cc5ccc(F)cc5)CC4)Cc4ccccc4)CCCC3)sc2c1 | 66 | –
6 | 158 | 7.9 | – | – | Cc1ccc2cc(C(=O)NC3(C(=O)N[C@@H](CCCN4CCN(Cc5ccccn5)CC4)Cc4ccccc4)CCCC3)sc2c1 | 90 | –
7 | 501 | 7.9 | – | – | Cc1ccc2cc(C(=O)NC3(C(=O)N[C@@H](CCCN4CCN(S(=O)(=O)C(C)C)CC4)Cc4ccccc4)CCCC3)sc2c1 | 85 | –
8 | 79.4 | 8.2 | – | – | Cc1ccc2cc(C(=O)NC3(C(=O)N[C@@H](CCC(=O)N4CCN(C5CCOCC5)CC4)Cc4ccccc4)CCCC3)sc2c1 | 99 | –
9 | 631 | 7.8 | 7.1 | – | Cc1ccc(-c2ccc(C(=O)NC3(C(=O)N[C@@H](CCCN4CCN(CC5CCOCC5)CC4)Cc4ccccc4)CCCC3)cc2)cc1 | 60 | –
10 | 2000 | 8.1 | – | – | Cc1ccc2cc(C(=O)NC3(C(=O)N[C@@H](CCCN4CCC(CCO)CC4)Cc4ccccc4)CCCC3)sc2c1 | 47 | –
11 | 631 | 8 | – | – | CCS(=O)(=O)N1CCN(CCC[C@@H](Cc2ccccc2)NC(=O)C2(NC(=O)c3cc4ccc(C)cc4s3)CCCC2)CC1 | 77 | –

More lines, now with the values behind:

Row | Compound | Ki [1] [pM] | pKb [2] | Papp A→B at 100 µM [3] [×10⁻⁶ cm/s] | Kb [5] [pM] | Imax [4] [%] | Activity [6]
12 | COc1ccc2oc(C(=O)NC3(C(=O)N[C@@H](CCCN4CCN(CC5CCOCC5)CC4)Cc4ccccc4)CCCC3)cc2c1 | 631 | 7.4 | 8.6 | – | 98 | –
13 | Cc1ccc2cc(C(=O)NC3(C(=O)N[C@@H](CCCN4CCN(Cc5ccsc5)CC4)Cc4ccccc4)CCCC3)sc2c1 | 158 | 8.2 | – | – | 88 | –
14 | Cc1ccc2cc(C(=O)NC3(C(=O)N[C@@H](CCCN4CCN(Cc5cccnc5)CC4)Cc4ccccc4)CCCC3)sc2c1 | 316 | 8.2 | – | – | 84 | –
15 | O=C(NC1(C(=O)N[C@@H](CCCN2CCN(CC3CCOCC3)CC2)Cc2ccccc2)CCCC1)c1cc2ccccc2s1 | 251 | 8.2 | – | – | 82 | –
16 | O=C(NC1(C(=O)N[C@@H](CCCN2CCN(CC3CCOCC3)CC2)Cc2ccccc2)CCCC1)c1cc2cc(Cl)ccc2o1 | 251 | 7.6 | 13.7 | – | 100 | –
17 | Cc1ccc2cc(C(=O)NC3(C(=O)N[C@@H](CCCN4CCN(S(N)(=O)=O)CC4)Cc4ccccc4)CCCC3)sc2c1 | 631 | 7.8 | – | – | 62 | –
18 | O=C(NC1(C(=O)N[C@@H](CCCN2CCN(CC3CCOCC3)CC2)Cc2ccccc2)CCCC1)c1ccc(-c2ccccc2)cc1 | 501 | 8.7 | 13.6 | – | 86 | –
19 | Cc1ccc2cc(C(=O)NC3(C(=O)N[C@@H](CCCN4CCN(Cc5ccoc5)CC4)Cc4ccccc4)CCCC3)sc2c1 | 158 | 8.2 | – | – | 67 | –
20 | Cc1ccc2cc(C(=O)NC3(C(=O)N[C@@H](CCCN4CCN(C5CCOCC5)CC4)Cc4ccccc4)CCCC3)sc2c1 | 251 | 8.1 | – | – | 100 | –
21 | Cc1ccc2cc(C(=O)NC3(C(=O)N[C@@H](CCCN4CCN(C(=O)N5CCOCC5)CC4)Cc4ccccc4)CCCC3)sc2c1 | 398 | 8.3 | – | – | 85 | –
22 | Cc1ccc2cc(C(=O)NC3(C(=O)N[C@@H](CCCN4CCN(Cc5nnn(C)n5)CC4)Cc4ccccc4)CCCC3)sc2c1 | 316 | 7.9 | – | – | 72 | –
23 | Cc1ccc2cc(C(=O)NC3(C(=O)N[C@@H](COCC4CCN(CC5CCOCC5)CC4)Cc4ccccc4)CCCC3)sc2c1 | 631 | 7.6 | – | – | 46 | –
24 | Cc1ccc2cc(C(=O)NC3(C(=O)N[C@@H](CCCN4CCN(c5ncccn5)CC4)Cc4ccccc4)CCCC3)sc2c1 | 794 | 8 | – | – | 63 | –
25 | Cc1ccc2cc(C(=O)NC3(C(=O)N[C@@H](CCCN4CCC(C(=O)N5CCOCC5)CC4)Cc4ccccc4)CCCC3)sc2c1 | 794 | 7.8 | – | – | 81 | –
26 | Cc1ccc2oc(C(=O)NC3(C(=O)N[C@@H](CCCN4CCN(CC5CCOCC5)CC4)Cc4ccccc4)CCCC3)cc2c1 | 398 | 8.7 | – | – | 100 | –
